Legend:
[1] = system: terpene cyclases; assay: PCR with degenerate terpene cyclase primers in Ajuga reptans cultures; assay type: cell-based; conditions: 24 hour post-treatment cultures
[2] = system: S. tectorum suspension culture; assay: Catechin profiling in Sempervivum tectorum suspension culture; assay type: cell-based; conditions: B49 medium, added on day 7
Description: Catechin derivative profiles in the S. tectorum suspension culture were obtained from incubations in 250 mL conical flasks containing either 100 mL of B88 growth medium or 100 mL of a secondary metabolite production medium B49 (Gamborg's B5 modified to contain 5% sucrose and no hormones) inoculated with 40 mL of 21 day old suspension culture. The cultures were incubated under low light conditions (approximately 30 lux) at 25° C.
(§1) Ten milliliters of culture samples were taken at regular intervals for 16 days following the day of subculture to B88 or B49 medium. All culture samples were centrifuged for five minutes at 4000 rpm and the supernatant liquid was removed and frozen. The cell residue was freeze-dried. Extraction, sample preparation, and HPLC analysis were performed as described in Example 1.

[3] = system: PAL, CHS, and F3-OH; assay: Quantitative RT-PCR of PAL, CHS and F3-OH transcripts in C. barkleyi cells; assay type: cell-based, Crassula barkleyi; conditions: after 24 hours of treatment, relative to TBP
Description: Differential induction of mRNA transcripts associated with the synthesis of catechin derivatives in the C. barkleyi suspension culture (as described in Example 2) and the C. dejecta suspension culture (as described in Example 3) were performed in 250 mL conical flasks containing 100 mL of a secondary metabolite production medium B49 (Gamborg's B5, 5% sucrose, no hormones), inoculated with 16 mL of a 14 day old suspension culture (C. barkleyi) or 40 mL of a 21 day old suspension culture (C. dejecta). The cultures were incubated under low light conditions (approximately 30 lux) at 25° C.
Induction of mRNA usually occurs within 48 hours of receipt of an inducing signal. Accordingly, samples were taken at intervals of 2, 4, 6, 10, 15, 24, and 48 hours following the above treatments. Samples, sufficient to give at least 1 mL packed cell volume, were centrifuged for five minutes at 4000 rpm and the supernatant removed. […]
This mixture was incubated at 42° C. for 50 min then denatured at 70° C. for 15 min and stored at −20° C., after a thirty-fold dilution with distilled water. An aliquot of this reaction was then used to quantify the relative abundance of each of the three genes (PAL, CHS, F3-OH) to the invariant one (TBP), using a real time quantification PCR machine (Perkin Elmer 7700) and the previously described oligonucleotides (shown in FIG. 7) in the following conditions: […]

[4] = system: terpene cyclase; assay: RT-PCR of terpene cyclase in Ajuga reptans cultures; assay type: cell-based; conditions: 24 hours after treatment
Description: To investigate the pattern of regulation of the terpene cyclase identified as described above, primers were synthesized that corresponded to sequence at each end of the RACE fragment. Ajuga reptans cultures were subject to the treatments described above, and RNA collected eight and 24 hours after treatment. RT-PCR was carried out using an […]™ One-Step RT-PCR kit (Clontech Laboratories, Palo Alto, Calif.). […] The primers also appear to be amplifying a constitutive cyclase.

[5] = system: C. dejecta suspension culture; assay: Differential induction of catechin accumulation in Crassula dejecta suspension culture; assay type: cell-based
Description: Differential induction of catechin derivatives in the C. dejecta suspension culture was performed in 250 mL conical flasks containing 100 mL of B105 growth medium or 100 mL of a secondary metabolite production medium B49 (Gamborg's B5, with 5% sucrose, and no hormones), inoculated with 40 mL of 21 day old suspension culture. The cultures were incubated under low light conditions (approximately 30 lux) at 25° C. Cultures were treated using one of each of the following protocols:
(1) B105 growth medium (no additions) used as is;
(3) Filter-sterilized aqueous zeatin (10 μM) was added at day 7 to a culture grown on B105 medium;
(4) B49 production medium (no additions) used as is;
as §1, with “(6) Filter-sterilized clofibrate (0.5 mM final concentration) was added at day 7 to a culture grown on B49 medium. Ten” for “Ten”, “17” for “16”, “B105” for “B88”, “rpm,” for “rpm”, “the” for “the supernatant liquid was removed and frozen. The”

[6] = system: C. acinaciformis suspension culture; assay: Effect of methyl jasmonate on catechin accumulation in Crassula acinaciformis suspension culture; assay type: cell-based; conditions: M33 medium, added on day 7, by day 16
Description: Catechin derivative profiles in the C. acinaciformis suspension culture were obtained from incubations in 250 mL conical flasks containing either 100 mL of M62 growth medium or 100 mL of a secondary metabolite production medium M33 (Murashige and Skoog (1962); modified to contain 5% sucrose and no hormones) inoculated with 40 mL of 21 day old suspension culture. The cultures were incubated under low light conditions (approximately 30 lux) at 25° C. […] 10 mL culture samples were taken at regular intervals for 16 days following the day of subculture to M33 medium. All culture samples were centrifuged for five minutes at 4000 rpm, and the cell residue was freeze-dried. Extraction, sample preparation, and HPLC analysis were performed as described in Example 1.

PCR band of first degenerate primer combination [1]: induced | induction of terpene cyclase (RT-PCR) [4]: induced
Structure (SMILES): CC/C=C\CC1C(=O)CCC1CC(=O)OC (centres unmarked) [methyl jasmonate]
PCR band of second degenerate primer combination (candidate cyclase for compound 6) [1]: not | catechin level [2]: no further increase in catechin level | induction of transcription of PAL, CHS, and F3-OH [3]: at least twenty fold | induction of EGCG and other catechins ([5]; cultures grown on both B105 and B49 media, added at day 7): induced EGCG and other catechins | accumulation of EGCG ([5]; on B49, methyl jasmonate added at day 7): ten-fold | catechin level [6]: approximate doubling of catechin level
